Details: Liquid, Vibrating tube method

CC(=O)OCCC(C)C [3-methylbutyl ethanoate]
mass density [kg/m3]
Details | 373.15 K | 393.15 K | 413.15 K | 433.15 K | 453.15 K | 473.15 K
500 kPa | – | 772 | 750 | 726 | 701 | 674
1000 kPa | – | 773 | 751 | 727 | 703 | 676
2500 kPa | – | 775 | 754 | 731 | 707 | 682
5000 kPa | – | 779 | 759 | 737 | 714 | 691
7500 kPa | 803 | 783 | 763 | 742 | 721 | 698
10000 kPa | 806 | 787 | 768 | 747 | 727 | 705
12500 kPa | 810 | 791 | 772 | 752 | 732 | 712
15000 kPa | 813 | 794 | 776 | 757 | 737 | 717
17500 kPa | 816 | 798 | 779 | 761 | 742 | 723
20000 kPa | 818 | 801 | 783 | 765 | 747 | 728
22500 kPa | 821 | 804 | 786 | 769 | 751 | 733
25000 kPa | 824 | 807 | 790 | 772 | 755 | 738
27500 kPa | 827 | 810 | 793 | 776 | 759 | 742
30000 kPa | 829 | 812 | 796 | 779 | 763 | 746
32500 kPa | 832 | 815 | 799 | 783 | 766 | 750
35000 kPa | 834 | 818 | 802 | 786 | 770 | 754
37500 kPa | 836 | 820 | 805 | 789 | 773 | 757
